The target in the first experiment is T1, human histamine H3 receptor (Homo sapiens, UniProt Q9Y5N1).
T1 construct: One microgram of supercoiled H3 receptor cDNA was added to the cells and mixed; expressed in transfected cells; membranes prepared from cell pellets
T1 sequence (Q9Y5N1 whole entry): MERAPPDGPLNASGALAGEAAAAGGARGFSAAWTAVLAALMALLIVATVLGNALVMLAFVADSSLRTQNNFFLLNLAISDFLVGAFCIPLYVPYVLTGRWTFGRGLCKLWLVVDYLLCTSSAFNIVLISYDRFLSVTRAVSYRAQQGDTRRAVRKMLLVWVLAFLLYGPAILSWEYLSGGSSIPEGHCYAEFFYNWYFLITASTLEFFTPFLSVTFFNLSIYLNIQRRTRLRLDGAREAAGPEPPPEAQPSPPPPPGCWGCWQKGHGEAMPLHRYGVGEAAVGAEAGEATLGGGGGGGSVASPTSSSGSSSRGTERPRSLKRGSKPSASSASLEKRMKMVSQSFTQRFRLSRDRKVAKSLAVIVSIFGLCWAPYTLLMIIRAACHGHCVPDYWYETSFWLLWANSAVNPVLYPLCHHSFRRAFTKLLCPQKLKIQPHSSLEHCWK
The experiment in a line: [3H]-N-methylhistamine binding.
Conditions: not given
How it is done: Transfection of Cells with Human Histamine Receptor
A 10 cm tissue culture dish with a confluent monolayer of SK-N-MC cells was split two days prior to transfection. Using sterile technique the media were removed and the cells were detached from the dish by the addition of trypsin. One fifth of the cells were then placed onto a new 10 cm dish. Cells were grown in a 37° C. incubator with 5% CO2 in Minimal Essential Media Eagle with 10% Fetal Bovine Serum. After two days cells were approximately 80% confluent. These were removed from the dish with trypsin and pelleted in a clinical centrifuge. The pellet was then re-suspended in 400 μL complete media and transferred to an electroporation cuvette with a 0.4 cm gap between the electrodes. One microgram of supercoiled H3 receptor cDNA was added to the cells and mixed. The voltage for the electroporation was set at 0.25 kV, the capacitance was set at 960 μF. After electroporation the cells were diluted into 10 mL complete media and plated onto four 10 cm dishes. Because of the variability in the efficiency of electroporation, four different concentrations of cells were plated. The ratios used were; 1:20, 1:10, 1:5, with the remainder of the cells being added to the fourth dish. The cells were allowed to recover for 24 hours before adding the selection media (complete media with 600 μg/mL G418). After 10 days dishes were analyzed for surviving colonies of cells. Dishes with well isolated colonies were used. Cells from individual colonies were isolated and tested. SK-N-MC cells were used because they give efficient coupling for inhibition of adenylate cyclase. The clones that gave the most robust inhibition of adenylate cyclase in response to histamine were used for further study.
[^3H]-N-methylhistamine Binding
Cell pellets from histamine H3 receptor-expressing SK-N-MC cells were homogenized in 20 mM Tris HCl/0.5 mM EDTA. Supernatants from a 800 g spin were collected, recentrifuged at 30,000 g for 30 min. Pellets were re-homogenized in 50 mM Tris/5 mM EDTA (pH 7.4). Membranes were incubated with 0.8 nM [^3H]-N-methylhistamine plus/minus test compounds for 45 min at 25° C. and harvested by rapid filtration over GF/C glass fiber filters (pretreated with 0.3% polyethylenimine) followed by four washes with ice cold buffer. Filters were dried, added to 4 mL scintillation cocktail and then counted on a liquid scintillation counter. Non-specific binding was defined with 10 μM histamine.
Regarding `CN1CCN(Cc2ccc(C#CCCN3CCCCC3)cc2)CC1` [Example 32, 1-Methyl-4-[4-(4-piperidin-1-yl-but-1-ynyl)-benzyl]-piperazine], the Ki came out at 0.7 nM. Take `C(#Cc1ccc(CN2CCN(Cc3ccccc3)CC2)cc1)CCN1CCCCC1` [Example 36, 1-Benzyl-4-[4-(4-piperidin-1-yl-but-1-ynyl)-benzyl]-piperazine]: the Ki is 9 nM. `C(#Cc1ccc(CN2CCNCC2)cc1)CCN1CCCCC1` [Example 38, 1-[4-(4-Piperidin-1-yl-but-1-ynyl)-benzyl]-piperazine] registered an inhibitory constant (Ki) of 1.3 nM. `C(#Cc1cccc(CN2CCCCC2c2cccnc2)c1)CCN1CCCCC1` (stereo not drawn) [Example 42, 1-[3-(4-Piperidin-1-yl-but-1-ynyl)-benzyl]-1,2,3,4,5,6-hexahydro-[2,3′]bipyridinyl]: the affinity, expressed as Ki, was 11 nM.

Turning to `FC(F)(F)c1cccc(N2CCN(Cc3cccc(C#CCCN4CCCCC4)c3)CC2)c1` [Example 43, 1-[3-(4-Piperidin-1-yl-but-1-ynyl)-benzyl]-4-(3-trifluoromethyl-phenyl)-piperazine], affinity was put at a Ki of 91 nM. In turn, `CN(CCc1c[nH]c2ccccc12)Cc1cccc(C#CCCN2CCCCC2)c1` [Example 52, [2-(1H-Indol-3-yl)-ethyl]-methyl-[3-(4-piperidin-1-yl-but-1-ynyl)-benzyl]-amine] gave a Ki of 2 nM.

The experiment is the same for the next values; noted with them: membranes of histamine H3 receptor-expressing SK-N-MC cells; 0.8 nM [3H]-N-methylhistamine; 45 min at 25° C.; read-out: Ki.
For the compound `C(#Cc1ccc(CN2CCCCC2)cc1)CCN1CCCCC1` [Example 14, 1-[4-(4-Piperidin-1-ylmethyl-phenyl)-but-3-ynyl]-piperidine], the inhibitory constant (Ki) is 1.6 nM. Take `C(#Cc1cccc(CN2CCCCC2)c1)CCN1CCCCC1` [Example 15, 1-[3-(4-Piperidin-1-yl-but-1-ynyl)-benzyl]-piperidine]: the Ki stood at 0.8 nM.

Turning to `C(#Cc1ccc(CN2CCCCC2)cc1)CCN1CCCC1` [Example 18, 1′-[4-(4-Pyrrolidin-1-yl-but-1-ynyl)-benzyl]-piperidine], the Ki was found to be 2 nM. The same measure, in the same setting: in the case of `CCN(CC)CCC#Cc1ccc(CN2CCCCC2)cc1` [Example 19, Diethyl-[4-(4-piperidin-1-ylmethyl-phenyl)-but-3-ynyl]-amine] it was 2.4 nM; in that of `C(#Cc1ccc(CN2CCCCC2)cc1)CCN1CCSCC1` [Example 20, 4-[4-(4-Piperidin-1-ylmethyl-phenyl)-but-3-ynyl]-thiomorpholine], 6 nM; in that of `C(#Cc1ccc(CN2CCCCC2)cc1)CCN1CCOCC1` [Example 21, 4-[4-(4-Piperidin-1-ylmethyl-phenyl)-but-3-ynyl]-morpholine], 15 nM. In the case of `CN1CCN(CCC#Cc2ccc(CN3CCCCC3)cc2)CC1` [Example 22, 1-Methyl-4-[4-(4-piperidin-1-ylmethyl-phenyl)-but-3-ynyl]-piperazine], the Ki worked out at 21 nM.

`C(#Cc1ccc(CN2CCCC2)cc1)CCN1CCCCC1` [Example 23, 1-[4-(4-Pyrrolidin-1-ylmethyl-phenyl)-but-3-ynyl]-piperidine]: the Ki amounted to 1.4 nM. Same read-out and setting: in the case of `C(#Cc1ccc(CN2CCOCC2)cc1)CCN1CCCCC1` [Example 24, 4-[4-(4-Piperidin-1-yl-but-1-ynyl)-benzyl]-morpholine] it was 5.5 nM; in that of `CCN(CC)Cc1ccc(C#CCCN2CCCCC2)cc1` [Example 25, Diethyl-[4-(4-piperidin-1-yl-but-1-ynyl)-benzyl]-amine], 1.1 nM.

On to `C(#Cc1ccc(CN2CCC(Cc3ccccc3)CC2)cc1)CCN1CCCCC1` [Example 26, 1-{4-[4-(4-Benzyl-piperidin-1-ylmethyl)-phenyl]-but-3-ynyl}-piperidine], for which the inhibitory constant (Ki) worked out at 2.9 nM. The same measure, in the same setting: the figure for `OC1CCN(Cc2ccc(C#CCCN3CCCCC3)cc2)CC1` [Example 27, 1-[4-(4-Piperidin-1-yl-but-1-ynyl)-benzyl]-piperidin-4-ol] is 1.7 nM; for `OCCC1CCCCN1Cc1ccc(C#CCCN2CCCCC2)cc1` (stereo not drawn) [Example 28, 2-{1-[4-(4-Piperidin-1-yl-but-1-ynyl)-benzyl]-piperidin-2-yl}-ethanol] it is 0.4 nM; for `C(#Cc1ccc(CN2CCCC3CCCCC32)cc1)CCN1CCCCC1` (stereo not drawn) [Example 29, 1-[4-(4-Piperidin-1-yl-but-1-ynyl)-benzyl]-decahydro-quinoline] it is 0.8 nM.

For `NC(=O)C1CCN(Cc2ccc(C#CCCN3CCCCC3)cc2)CC1` [Example 30, 1-[4-(4-Piperidin-1-yl-but-1-ynyl)-benzyl]-piperidine-4-carboxylic acid amide], the Ki was found to be 1.6 nM. `C(#Cc1ccc(CN2CCC3(CC2)OCCO3)cc1)CCN1CCCCC1` [Example 31, 8-[4-(4-Piperidin-1-yl-but-1-ynyl)-benzyl]-1,4-dioxa-8-aza-spiro[4.5]decane]: the Ki turned out to be 1.8 nM. Consider `C(#Cc1ccc(CNC2CCCCC2)cc1)CCN1CCCCC1` [Example 33, Cyclohexyl-[4-(4-piperidin-1-yl-but-1-ynyl)-benzyl]-amine], for which the Ki amounted to 0.5 nM.

As to `C(#Cc1ccc(CNC2CCc3ccccc32)cc1)CCN1CCCCC1` (stereo not drawn) [Example 34, Indan-1-yl-[4-(4-piperidin-1-yl-but-1-ynyl)-benzyl]-amine], the inhibition constant Ki turned out to be 1.3 nM. For the compound `C(#Cc1ccc(CN2CCN(c3ccccc3)CC2)cc1)CCN1CCCCC1` [Example 35, 1-Phenyl-4-[4-(4-piperidin-1-yl-but-1-ynyl)-benzyl]-piperazine], the Ki came to 7 nM. Take `CC(C)(C)OC(=O)N1CCN(Cc2ccc(C#CCCN3CCCCC3)cc2)CC1` [Example 37, 4-[4-(4-Piperidin-1-yl-but-1-ynyl)-benzyl]-piperazine-1-carboxylic acid tert-butyl ester]: the inhibitory constant (Ki) worked out at 15 nM. As for `CC(C)N1CCN(Cc2ccc(C#CCCN3CCCCC3)cc2)CC1` [Example 39, 1-Isopropyl-4-[4-(4-piperidin-1-yl-but-1-ynyl)-benzyl]-piperazine], the Ki came out at 1.3 nM. For the compound `CCN(CC)C(=O)C1CCCN(Cc2cccc(C#CCCN3CCCCC3)c2)C1` (stereo not drawn) [Example 41, 1-[3-(4-Piperidin-1-yl-but-1-ynyl)-benzyl]-piperidine-3-carboxylic acid diethylamide], the Ki was 3 nM.

Take `C(#Cc1cccc(CN2CCN(c3ncccn3)CC2)c1)CCN1CCCCC1` [Example 44, 2-{4-[3-(4-Piperidin-1-yl-but-1-ynyl)-benzyl]-piperazin-1-yl}-pyrimidine]: the Ki turned out to be 9 nM. Still for that read-out and setting: the figure for `NC(=O)C1CCN(Cc2cccc(C#CCCN3CCCCC3)c2)CC1` [Example 45, 1-[3-(4-Piperidin-1-yl-but-1-ynyl)-benzyl]-piperidine-4-carboxylic acid amide] is 2 nM.

For the compound `CN(CCc1ccccn1)Cc1cccc(C#CCCN2CCCCC2)c1` [Example 46, Methyl-[3-(4-piperidin-1-yl-but-1-ynyl)-benzyl]-(2-pyridin-2-yl-ethyl)-amine], the Ki was 4 nM. For the compound `COc1ccc(CCN(C)Cc2cccc(C#CCCN3CCCCC3)c2)cc1OC` [Example 47, [2-(3,4-Dimethoxy-phenyl)-ethyl]-methyl-[3-(4-piperidin-1-yl-but-1-ynyl)-benzyl]-amine], the Ki stood at 3 nM.

With `C(#Cc1cccc(CN2CCSCC2)c1)CCN1CCCCC1` [Example 48, 4-[3-(4-Piperidin-1-yl-but-1-ynyl)-benzyl]-thiomorpholine], the Ki is 1 nM. On the same count and under the same terms, the figure for `C=CCN(Cc1cccc(C#CCCN2CCCCC2)c1)C1CCCC1` [Example 49, Allyl-cyclopentyl-[3-(4-piperidin-1-yl-but-1-ynyl)-benzyl]-amine] is 2 nM; for `C(#Cc1cccc(CN2CCOCCOCCOCC2)c1)CCN1CCCCC1` [Example 50, 10-[3-(4-Piperidin-1-yl-but-1-ynyl)-benzyl]-1,4,7-trioxa-10-aza-cyclododecane] it is 2 nM. `C(#Cc1cccc(CN2CCSC2)c1)CCN1CCCCC1` [Example 51, 1-[4-(3-Thiazolidin-3-ylmethyl-phenyl)-but-3-ynyl]-piperidine]: the Ki is 1 nM. In the case of `C(#Cc1cccc(CNc2ccccc2)c1)CCN1CCCCC1` [Example 54, Phenyl-[3-(4-piperidin-1-yl-but-1-ynyl)-benzyl]-amine], the inhibition constant Ki is 110 nM. In the case of `C(#Cc1cccc(CN2CCCC2)c1)CCN1CCCCC1` [Example 55, 1-[4-(3-Pyrrolidin-1-ylmethyl-phenyl)-but-3-ynyl]-piperidine], the inhibitory constant (Ki) amounted to 1 nM.

Still in this experiment, the particulars now being: read-out: Ki.
Turning to `O=C1NCN(c2ccccc2)C12CCN(Cc1cccc(C#CCCN3CCCCC3)c1)CC2` [Example 40, 1-Phenyl-8-[3-(4-piperidin-1-yl-but-1-ynyl)-benzyl]-1,3,8-triaza-spiro[4.5]decan-4-one], the Ki was 2 nM.

As a reminder, the Ki is a dissociation constant, usually derived from enzyme kinetics or from competition with a known ligand.

Source of the values: patent US7446104B2, “Phenylalkynes” (Ortho-McNeil Pharmaceutical, Inc., priority 2001, dated 2008).
